Results as given in ChEMBL document CHEMBL3044873, “Aryl N, N-Dimethylcarbamates, Synergists for Organophosphorus Insecticides against Organophos-phorusresistant Rice Stem Borers” (J Pestic Sci, 1990).

How the values were obtained:
Chilo suppressalis [1] = assay: Inhibition of fenitrothion-detoxification activities by hydrolysis in OP-resistant Chilo suppressalis Hata-f (rice stem borer); format: organism-based; details: read-out: I50
Chilo suppressalis [2] = assay: Potentiation of pirimiphos-methyl-induced insecticidal activity against OP-resistant Chilo suppressalis Hata-f (rice stem borer) assessed as synergistic ratio at 1:5 pirimiphos-methyl to compound ratio relative to pirimiphos-methyl alone; format: functional
[3] = test system: fenitrothion-detoxification activity by hydrolysis; assay: Inhibition of fenitrothion-detoxification activities by hydrolysis in OP-resistant Chilo suppressalis Hata-f (rice stem borer) at 1x10'-6M (reference value: 0%); format: organism-based; details: probe fenitrothion
Chilo suppressalis [4] = assay: Potentiation of fenitrothion-induced insecticidal activity against OP-resistant Chilo suppressalis Hata-f (rice stem borer) assessed as synergistic ratio at 1:10 fenitrothion to compound ratio relative to fenitrothion alone; format: functional
[5] = test system: fenitrothion-detoxification activity by binding protein; assay: Inhibition of fenitrothion-detoxification activities by binding protein in OP-resistant Chilo suppressalis Hata-f (rice stem borer) at 1x10'-5M (reference value: 0%); format: organism-based; details: in vivo, probe fenitrothion
Chilo suppressalis [6] = assay: Potentiation of pirimiphos-methyl-induced insecticidal activity against OP-resistant Chilo suppressalis Hata-f (rice stem borer) assessed as synergistic ratio at 1:10 pirimiphos-methyl to compound ratio relative to pirimiphos-methyl alone; format: functional
[7] = test system: fenitrothion-detoxification activity by hydrolysis; assay: Inhibition of fenitrothion-detoxification activities by hydrolysis in OP-resistant Chilo suppressalis Hata-f (rice stem borer) at 1x10'-5M (reference value: 0%); format: organism-based; details: probe fenitrothion
[8] = test system: fenitrothion-detoxification activity by hydrolysis; assay: Inhibition of fenitrothion-detoxification activities by hydrolysis in OP-resistant Chilo suppressalis Hata-f (rice stem borer) at 1x10'-4M (reference value: 0%); format: organism-based; details: probe fenitrothion
Chilo suppressalis [9] = assay: Inhibition of fenitrothion-detoxification activities by binding protein in OP-resistant Chilo suppressalis Hata-f (rice stem borer); format: organism-based; details: read-out: I50
[10] = test system: fenitrothion-detoxification activity by binding protein; assay: Inhibition of fenitrothion-detoxification activities by binding protein in OP-resistant Chilo suppressalis Hata-f (rice stem borer) at 1x10'-7M (reference value: 0%); format: organism-based; details: in vivo, probe fenitrothion
[11] = test system: fenitrothion-detoxification activity by binding protein; assay: Inhibition of fenitrothion-detoxification activities by binding protein in OP-resistant Chilo suppressalis Hata-f (rice stem borer) at 1x10'-4M (reference value: 0%); format: organism-based; details: in vivo, probe fenitrothion
Chilo suppressalis [12] = assay: Potentiation of fenitrothion-induced insecticidal activity against OP-susceptible Chilo suppressalis (rice stem borer) S strain assessed as synergistic ratio at 1:10 fenitrothion to compound ratio relative to fenitrothion alone; format: functional
[13] = test system: fenitrothion-detoxification activity by hydrolysis; assay: Inhibition of fenitrothion-detoxification activities by hydrolysis in OP-resistant Chilo suppressalis Hata-f (rice stem borer) at 1x10'-7M (reference value: 0%); format: organism-based; details: probe fenitrothion
Chilo suppressalis [14] = assay: Potentiation of pirimiphos-methyl-induced insecticidal activity against OP-resistant Chilo suppressalis Hata-f (rice stem borer) assessed as synergistic ratio at 1:1 pirimiphos-methyl to compound ratio relative to pirimiphos-methyl alone; format: functional
[15] = test system: fenitrothion-detoxification activity by binding protein; assay: Inhibition of fenitrothion-detoxification activities by binding protein in OP-resistant Chilo suppressalis Hata-f (rice stem borer) at 1x10'-6M (reference value: 0%); format: organism-based; details: in vivo, probe fenitrothion
Chilo suppressalis [16] = assay: Insecticidal activity against OP-susceptible Chilo suppressalis S (rice stem borer) strain assessed as mortality measured after 24 hr; format: functional
Chilo suppressalis [17] = assay: Resistance ratio, LC50 for OP-resistance Chilo suppressalis Hata-f (rice stem borer) to OP-susceptible Chilo suppressalis S (rice stem borer) strain; format: functional
Chilo suppressalis [18] = assay: Insecticidal activity against OP-resistance Chilo suppressalis Hata-f (rice stem borer) assessed as mortality measured after 24 hr; format: functional

With `Cc1cc(OC(=O)N(C)C)nc(N(C)C)n1` the IC50 (Chilo suppressalis [1]) was 4.5 µM, the “fold change (FC)” value (Chilo suppressalis [2]) was 751 and the inhibition at 1 µM [3] was 22.2%. The “fold change (FC)” value (Chilo suppressalis [4]) was 38, the inhibition at 10 µM [5] was 75% and the “fold change (FC)” value (Chilo suppressalis [6]) was 1061. For the same compound, the inhibition at 10 µM [7] was 66.7%, the inhibition at 100 µM [8] was 78% and the IC50 (Chilo suppressalis [9]) was 3.3 µM. The inhibition at 0.1 µM [10] was 0%, the inhibition at 100 µM [11] was 78.4% and the “fold change (FC)” value (Chilo suppressalis [12]) was 1. The inhibition at 0.1 µM [13] was 0%, the “fold change (FC)” value (Chilo suppressalis [14]) was 234 and the inhibition at 1 µM [15] was 19.3%.

For `COP(=O)(OC)Oc1ccc([N+](=O)[O-])c(C)c1` [FENITROXON], the LD50 (Chilo suppressalis [16]) was 1.2 mg/kg, the RatioLC50 (Chilo suppressalis [17]) was 23 and the LD50 (Chilo suppressalis [18]) was 27 mg/kg.

In the case of `CCN(CC)c1nc(C)cc(OC(=O)N(C)C)n1`, the “fold change (FC)” value (Chilo suppressalis [2]) is reported as 440, the “fold change (FC)” value (Chilo suppressalis [4]) is reported as 20 and the “fold change (FC)” value (Chilo suppressalis [6]) is reported as 451. For the same compound, the “fold change (FC)” value (Chilo suppressalis [12]) was 1 and the “fold change (FC)” value (Chilo suppressalis [14]) was 86.

For `CNc1nc(C)cc(OC(=O)N(C)C)n1`, the “fold change (FC)” value (Chilo suppressalis [2]) was 451, the “fold change (FC)” value (Chilo suppressalis [4]) was 21 and the “fold change (FC)” value (Chilo suppressalis [6]) was 818. For the same compound, the “fold change (FC)” value (Chilo suppressalis [14]) was 129.

For `Cc1cc(OC(=O)N(C)C)no1`, the “fold change (FC)” value (Chilo suppressalis [2]) was 438, the “fold change (FC)” value (Chilo suppressalis [4]) was 16 and the “fold change (FC)” value (Chilo suppressalis [6]) was 582. For the same compound, the “fold change (FC)” value (Chilo suppressalis [14]) was 90.

`COP(=S)(OC)Oc1ccc([N+](=O)[O-])c(C)c1` [FENITROTHION] was tested, and the LD50 (Chilo suppressalis [16]) was 1.8 mg/kg, the RatioLC50 (Chilo suppressalis [17]) was 38 and the LD50 (Chilo suppressalis [18]) was 69 mg/kg.

`CCN(CC)c1nc(C)cc(OP(=S)(OC)OC)n1` [PIRIMIPHOS METHYL] was tested, and the LD50 (Chilo suppressalis [16]) was 1.5 mg/kg, the RatioLC50 (Chilo suppressalis [17]) was 1202 and the LD50 (Chilo suppressalis [18]) was 1800 mg/kg.

For `CN(C)C(=O)Oc1cc(-c2ccccc2)on1`, the “fold change (FC)” value (Chilo suppressalis [2]) was 328, the “fold change (FC)” value (Chilo suppressalis [4]) was 23 and the “fold change (FC)” value (Chilo suppressalis [6]) was 419. For the same compound, the “fold change (FC)” value (Chilo suppressalis [12]) was 0.9 and the “fold change (FC)” value (Chilo suppressalis [14]) was 67.

`CN(C)C(=O)Sc1ccc([N+](=O)[O-])cc1` was tested, and the “fold change (FC)” value (Chilo suppressalis [4]) was 1.9.

In the case of `Cc1cc(OC(=S)N(C)C)ccc1Cl`, the “fold change (FC)” value (Chilo suppressalis [4]) is reported as 4.1.

With `CSc1ccc(OC(=S)N(C)C)cc1C` the “fold change (FC)” value (Chilo suppressalis [4]) was 4.9.

For `Cc1cc(OC(=O)N(C)C)nc(C(C)C)n1`, the “fold change (FC)” value (Chilo suppressalis [4]) was 15.

`CN(C)C(=O)Oc1cccc([N+](=O)[O-])c1` [3-NITROPHENYL DIMETHYLCARBAMATE] was tested, and the “fold change (FC)” value (Chilo suppressalis [4]) was 8.2.

In the case of `COc1ccc(OC(=O)N(C)C)cc1` [4-METHOXYPHENYL DIMETHYLCARBAMATE], the “fold change (FC)” value (Chilo suppressalis [4]) is reported as 3.

`CN(C)C(=O)Oc1cccc(Cl)c1` [3-CHLOROPHENYL DIMETHYLCARBAMATE] was tested, and the “fold change (FC)” value (Chilo suppressalis [4]) was 11.

For `CN(C)C(=O)Oc1cccc2ccccc12`, the “fold change (FC)” value (Chilo suppressalis [4]) was 13.

`CN(C)C(=O)Oc1ccc2ccccc2c1` [NAPHTHALEN-2-YL DIMETHYLCARBAMATE] was tested, and the “fold change (FC)” value (Chilo suppressalis [4]) was 16.

For `Cc1ccc(OC(=O)N(C)C)c([N+](=O)[O-])c1`, the “fold change (FC)” value (Chilo suppressalis [4]) was 5.8.

For `Cc1cc(OC(=O)N(C)C)ccc1[N+](=O)[O-]`, the “fold change (FC)” value (Chilo suppressalis [2]) was 196, the “fold change (FC)” value (Chilo suppressalis [4]) was 23 and the “fold change (FC)” value (Chilo suppressalis [6]) was 207. For the same compound, the “fold change (FC)” value (Chilo suppressalis [12]) was 0.7 and the “fold change (FC)” value (Chilo suppressalis [14]) was 67.

`CSc1ccc(OC(=O)N(C)C)cc1` [4-(METHYLTHIO)PHENYL DIMETHYLCARBAMATE] was tested, and the “fold change (FC)” value (Chilo suppressalis [4]) was 16.

With `CCNC(=O)Oc1ccc(SC)c(C)c1` the “fold change (FC)” value (Chilo suppressalis [4]) was 0.6.

With `CNC(=O)Oc1ccc([N+](=O)[O-])c(C)c1` the “fold change (FC)” value (Chilo suppressalis [4]) was 1.1.

`CNC(=O)Oc1ccc(Cl)c(C)c1` was tested, and the “fold change (FC)” value (Chilo suppressalis [4]) was 1.1.

With `CN(C)C(=O)OCc1ccc([N+](=O)[O-])cc1` [4-NITROBENZYL DIMETHYLCARBAMATE] the “fold change (FC)” value (Chilo suppressalis [4]) was 1.

For `CCNC(=O)Oc1cccc2ccccc12`, the “fold change (FC)” value (Chilo suppressalis [4]) was 1.

For `Cc1cc(OC(=O)N(C)C)nc(-c2ccccc2)n1`, the “fold change (FC)” value (Chilo suppressalis [4]) was 13.

With `CN(C)C(=O)Oc1ccc2ccccc2n1` the “fold change (FC)” value (Chilo suppressalis [4]) was 15.

With `O=C(Nc1ccccc1)Oc1ccc([N+](=O)[O-])cc1` [4-NITROPHENYL PHENYLCARBAMATE] the “fold change (FC)” value (Chilo suppressalis [4]) was 0.9.

In the case of `CCNC(=O)Oc1ccc([N+](=O)[O-])c(C)c1`, the “fold change (FC)” value (Chilo suppressalis [4]) is reported as 0.7.

With `CN(C)C(=S)Oc1ccc([N+](=O)[O-])cc1` the “fold change (FC)” value (Chilo suppressalis [4]) was 1.6.

With `CSc1ccc(OC(=O)N(C)C)cc1C` the “fold change (FC)” value (Chilo suppressalis [2]) was 188, the “fold change (FC)” value (Chilo suppressalis [4]) was 22 and the “fold change (FC)” value (Chilo suppressalis [6]) was 231. The “fold change (FC)” value (Chilo suppressalis [12]) was 0.9 and the “fold change (FC)” value (Chilo suppressalis [14]) was 72.

With `CCN(CC)C(=O)Oc1ccc(Cl)c(C)c1` the “fold change (FC)” value (Chilo suppressalis [4]) was 1.8.

For `CN(C)C(=O)Oc1ccc(Cl)cc1` [4-CHLOROPHENYL DIMETHYLCARBAMATE], the “fold change (FC)” value (Chilo suppressalis [4]) was 10.

For `CCN(CC)C(=O)Oc1ccc(C#N)cc1` [4-CYANOPHENYL DIETHYLCARBAMATE], the “fold change (FC)” value (Chilo suppressalis [4]) was 1.7.

With `CCN(CC)C(=O)Oc1cc(-c2ccccc2)on1` the “fold change (FC)” value (Chilo suppressalis [4]) was 4.1.
